Data as given in patent US7968124B2, “Compositions for the reversal and detoxification of anesthetics and other compounds and methods of their use” (Lyotropic Therapeutics, Inc., priority 2004, dated 2011).
Values after ≈ are worked out from the molar mass of the structure shown. Read-outs that look alike come from different tables or passages of the source.

Tests used:
[1] = Uptake of toxin into particles, centrifuge filter separation and HPLC: etomidate; details: etomidate in the absence of albumin
[2] = Solubility of drugs in soy oil, water, tocopherol and PC/tocopherol/water cubic phase
Method: (§1) Methanol and dichloromethane were particularly effective for this purpose. After solubilizing the compound and soy oil or tocopherol together with the common solvent, the common solvent was then evaporated using a rotovap. At the resulting concentration of the compound in soy oil or tocopherol, the sample was monitored over approximately 4 weeks for any sign of precipitation, using centrifugation and microscopy; the microscopy was performed using a combination of Differential Interference Contrast (DIC), transmitted dark field, and polarizing modes.

[3] = Partition of amphotericin B between PC/alpha-tocopherol/water cubic phase and water (HPLC); type: physicochemical
Method: Amphotericin B provides an example of an API with high toxicity which has a site of action in the interior of a fungal lipid biomembrane.
An amount 0.0082 g of Amphotericin B and 0.8 mL of DMSO (dimethylsulfoxide) were added to a 16 mL test tube. The test tube was heated to 60° C. until the amphotericin B was completely dissolved. An amount 0.692 g of 2.5% DMPG in the phosphatidylcholine product Lipoid E80, 0.8 mL of DMSO, and 0.6 mL of ethanol were added to a second 16 mL test tube. The mixture was heated to 60° C. and vortexed until the Lipoid E80/DMPG was entirely dissolved. An amount 0.6873 g of vitamin E and 0.8 mL of DMSO were added to a third 16 mL test tube. The mixture was heated to 60° C. and vortexed until the vitamin E was completely dissolved. The contents of the second and third test tubes were added to the first test tube containing the amphotericin B and DMSO mixture. The test tube containing the entire mixture was heated to 60° C. for 30 minutes to ensure that all components were completely dissolved.
An amount of 10 mL of deionized water was added to the test tube. The test tube was gently shaken at 40 RPM for 30 minutes on a Lab-Line Junior Orbit Shaker. The aqueous portion was decanted and filtered through Aldrich medium speed filter paper into a clean test tube and labeled “wash 1”. This washing procedure was repeated three additional times to obtain “wash 2”, “wash 3”, and “wash 4”.
HPLC analysis was then performed to determine the amphotericin B concentrations in the 4 wash solutions and the final, quadruply-washed cubic phase. […] In contrast, the amphotericin B concentrations in the “wash 3” and “wash 4” solutions were both approximately 0.0035 mg/mL, thus making the partition coefficient on the order of 1,000.

[4] = Effective partition coefficients of local anesthetics into Example 10 dispersions in the presence of albumin; details: dispersions and methods of Example 10, RA5-15E dispersion named
Method: Nanosep Omega centrifuge filters at 300,000 MWCO from Pall Filtron were used to separate particles from exterior phase.
For HPLC analysis, the bottom phase liquid (filtrate) was injected directly, and the top phase (retentate) dissolved in 500 microliters of methanol, then injected. […] Standards were run for each of the toxins, and toxin concentrations determined in the exterior (bottom) phase and in the top phase retentate.
The analysis proceeded as follows. […] From this and the top phase assay value, the concentration of toxin in the particles was back-calculated. This was then divided by the aqueous phase (bottom phase) concentration, since this was undiluted, in order to arrive at an effective partition coefficient.

[5] = tested on: bupivacaine cardiotoxicity; assay: Rescue in rat model with normally-lethal intravenous injection of bupivacaine; type: in vivo; details: rats, 12 mg/Kg intravenously, all animals
Method: The RA5-5E and RA5-15E dispersions prepared in Example 10 were subsequently tested in vivo as a rescue agent in a rat model incorporating a normally-lethal intravenous injection of bupivacaine. Twelve adult male rats were randomly arranged into three groups of four animals each. Animals in each group were given a known lethal dose (12 mg/Kg) of the amide local anesthetic bupivacaine intravenously. Each animal was monitored for signs of acute cardiotoxicity. All animals became pulseless within 10 seconds of the injection of bupivacaine. When each animal became pulseless, it was treated immediately with mild chest compression and with one of the following: (i) 4 ml/Kg normal physiologic saline (Group A); (ii) 4 ml/Kg of dispersion RA5-15E of the instant invention with a 15 percent particle concentration (Group B); or, (iii) 6 ml/Kg of dispersion RA5-5E of the instant invention with a 5.6 percent particle concentration (Group C). […] The administration of the dispersion according to the instant invention rescued the animals from death due to the systemic toxicity of an overdose of a common local anesthetic agent.

[6] = pH 7.4; cited from earlier work
[7] = Binding of strontium ions to cubic phase particles (precipitation, centrifugation); type: physicochemical; details: 18.9 mM strontium chloride added to RA5-15E; immediate precipitation, centrifuged to the bottom
Excerpt: A high degree of binding of strontium ions to the phosphatidylcholine in RA5-15E was evidenced by the immediate precipitation of the cubic phase, which centrifuged to the bottom of the dispersion. Were the heavy strontium ions not bound, the cubic phase would be less dense than water and would have centrifuged to the top of the dispersion, as is the usual case with other methods of precipitating the particles. Radiostrontium, and to a lesser extent strontium, have known toxic effects, as do related phosphatidylcholine-binding metals. More broadly, this Example illustrates how the effect of large bilayer surface areas in cubic phase particles can result in effective uptake of toxins that bind to bilayer components.

[8] = Partitioning of vecuronium bromide between phosphatidylcholine/tocopherol/water reversed cubic phase and water (HPLC); type: physicochemical
Method: In this Example, the partitioning of the quaternary ammonium skeletal muscle relaxant vecuronium bromide, a water-soluble compound with a low octanol-water partition coefficient, between a phosphatidylcholine/tocopherol/water reversed cubic phase and water is measured, and found to be very high, sufficiently high as to enable the use of the invention in attenuating the effect of the drug in the body of a mammal. An amount 0.6169 gm of phosphatidylcholine (Phospholipon 90G, from Phospholipid GmbH) was mixed with 0.6730 gm of alpha-tocopherol and 0.2194 gm of a 10% vecuronium bromide solution in water. An amount 1.1226 gm of this mixture was smeared onto the inner wall of a test tube, and 6.4495 gm of water added to the tube so as to contact the mixture. Upon swelling with water, the mixture became a reversed cubic phase. […] The partition coefficient between cubic phase and water was thus approximately 1,600 (or log KQW=3.2). […] One with ordinary skill in the art will recognize that the vecuronium mass balance checks correctly if one assumes that the water content of the final cubic phase, after swelling to equilibrium, is approximately 40%, which is in perfect accord with the phase diagram derived in this laboratory for this cubic phase region.

[9] = intravenous doses as high as 30 mg/Kg/day; cited from earlier work
[10] = oil or lipid, Solubility in soy oil

Method for physchem: as §1

**Q.** For `CCOC(=O)c1cncn1[C@H](C)c1ccccc1` [Etomidate], which solubility (physchem; oil or lipid, Solubility in cubic phase with tocopherol, approx. 34% phosphatidylcholine, 31% tocopherol plus compound, 35% water) is on record?
**A.** The solubility was 105 mg/mL.

**Q.** What about the solubility (physchem; [10]) of the same molecule?
**A.** Its solubility is 80 mg/mL (≈ 327 mM).

**Q.** What about the solubility (physchem; oil or lipid, Solubility in tocopherol) of the same molecule?
**A.** Its solubility is 200 mg/mL (≈ 819 mM).

**Q.** What about the solubility (physchem; water, Solubility in Water) of the same molecule?
**A.** The solubility was 4.5e-05 mg/mL (≈ 0.000184 mM).

**Q.** And the effective partition coefficient [1]?
**A.** Its effective partition coefficient is 309.

**Q.** What does the source list for `CCC(C)n1ncn(-c2ccc(N3CCN(c4ccc(OCC5COC(Cn6cncn6)(c6ccc(Cl)cc6Cl)O5)cc4)CC3)cc2)c1=O` (stereo not shown) [Itraconazole]?
**A.** solubility ([2]; soy oil, oil or lipid): < 500 µg/mL; solubility ([2]; water): 0.001 µg/mL (≈ 1.42e-06 mM)

**Q.** Which solubility ([2]; soy oil, oil or lipid) does the source give for `COc1c(C)c2c(c(O)c1C/C=C(\C)CCC(=O)OCCN1CCOCC1)C(=O)OC2` [Mycophenolate mofetil] here?
**A.** The solubility was 3000 µg/mL (≈ 6.92 mM).

**Q.** And the solubility ([2]; tocopherol, oil or lipid)?
**A.** The solubility was 200000 µg/mL (≈ 461 mM).

**Q.** What about the solubility ([2]; water) of the same molecule?
**A.** The solubility was 39 µg/mL (≈ 0.09 mM).

**Q.** With `CC(=O)O[C@H]1C(=O)[C@@]2(C)[C@H]([C@H](OC(=O)c3ccccc3)[C@]3(O)C[C@H](OC(=O)[C@H](O)[C@@H](NC(=O)c4ccccc4)c4ccccc4)C(C)=C1C3(C)C)[C@]1(OC(C)=O)CO[C@@H]1C[C@@H]2O` [Paclitaxel] as the molecule, how does the solubility (physchem; oil or lipid, Solubility in cubic phase with spearmint oil in place of tocopherol) read?
**A.** Its solubility is 42 mg/mL (≈ 49.2 mM).

**Q.** What about the solubility (physchem; [10]) of the same molecule?
**A.** The solubility was under 0.1 mg/mL.

**Q.** What about the solubility (physchem; oil or lipid, Solubility in spearmint oil (used in place of tocopherol)) of the same molecule?
**A.** Its solubility is 100 mg/mL (≈ 117 mM).

**Q.** Which results are given for `C[C@@H]1[C@H](O)[C@@H](C)/C=C/C=C/C=C/C=C/C=C/C=C/C=C/[C@H](O[C@@H]2O[C@H](C)[C@@H](O)[C@H](N)[C@@H]2O)C[C@@H]2O[C@](O)(C[C@@H](O)C[C@@H](O)[C@H](O)CC[C@@H](O)C[C@@H](O)CC(=O)O[C@H]1C)C[C@H](O)[C@H]2C(=O)O` [amphotericin B]?
**A.** concentration in "wash 3" and "wash 4" solutions [3]: approximately 0.0035 mg/mL; true concentration in the cubic phase itself, estimated ([3]; corrected for entrapped water): approximately 3 mg/mL; concentration in quadruply-washed cubic phase (HPLC) ([3]; cubic phase with entrapped pockets of water): 1760 µg/mL

**Q.** With `CCOC(=O)c1ccc(N)cc1` [benzocaine] as the molecule, how does the effective partition coefficient [4] read?
**A.** The effective partition coefficient was 148.

**Q.** What does the source list for `CCCCN1CCCCC1C(=O)Nc1c(C)cccc1C` (stereo not shown) [bupivacaine]?
**A.** time to pulselessness after injection [5]: ≤ 10 s; octanol-water coefficient [6]: greater than 1,000; effective partition coefficient [4]: 62

**Q.** With `[Cl-].[Cl-].[Sr+2]` [strontium ions, strontium chloride] as the molecule, how does the “binding of strontium ions to cubic phase particles” value [7] read?
**A.** Its value is “strong binding”.

**Q.** Which “log KQW” value [8] does the source give for `CC(=O)O[C@H]1C[C@@H]2CC[C@@H]3[C@H](CC[C@@]4(C)[C@H]3C[C@H]([N+]3(C)CCCCC3)[C@@H]4OC(C)=O)[C@@]2(C)C[C@@H]1N1CCCCC1` [vecuronium bromide] here?
**A.** The value was 3.2.

**Q.** And the “partition coefficient between cubic phase and water” value [8]?
**A.** The value was “approximately 1,600”.

**Q.** And the “concentration in the aqueous phase” value ([8]; after 3 days of contact)?
**A.** The value was 6 µg/mL.

**Q.** And the “concentration in the cubic phase” value ([8]; after 3 days of contact)?
**A.** The value was 10000 µg/mL.

**Q.** And the “log KQW” value ([8]; anionic lipid content increased by incorporating a bile salt)?
**A.** The value was “approximately 4”.

**Q.** And the “cubic phase-water partition coefficient” value ([8]; for at least some cubic phases of use in the invention)?
**A.** The value was “above 1,000”.

**Q.** For tocopherol, which “adverse effects of intravenous doses” value [9] is on record?
**A.** The value was “essentially free from any adverse effects”.
